Reference: patent US20100144815A1, “AMINO ACID COMPOSITION” (priority 2007, published 2010)

What was measured:
[1] = system: Mouse fibroblasts (3T3-L1 cells); assay: Fatty acid releasing activity in mouse fibroblasts differentiated to adipocytes (NEFA-C Test Wako); format: cell-based; conditions: 1 μM in PBS, 4 hours; triplicate; control 0.024
Protocol: The induction of differentiation from mouse fibroblasts (3T3-L1 cells) to adipocytes was carried out in 12-well multiwell plates according to a known procedure. After treatment over about 2 weeks to induce differentiation to adipocytes, it was confirmed under a microscope that large differences in the differentiation induction activity were not present among these wells.
[…] After 4 hours, 5 μL of the PBS solution was picked up and was transferred to a 96-well multiwell plate. The amount of free-fatty acid was measured on the 96-well multiwell plate by using a NEFA-C Test Wako which is for measuring free-fatty acid.
The principle of measuring the amount of free-fatty acid is as follows. AcylCoA is produced by the reaction between acylCoA synthetase (ACS) and free-fatty acid. The reaction of acylCoA oxidase (ACOD) with the produced acylCoA generates hydrogen peroxide, and in the presence of this hydrogen peroxide, oxidative condensation between 3-methyl-N-ethyl-N-(β-hydroxyethyl)aniline (MEHA) and 4-aminoantipyrine was done, and thereby a blue-purple dye was produced. The amount of free fatty acid can be detected by measurement Of the optimal absorbance of this blue-purple dye. A large quantity of free fatty acid indicates a high level of lipolysis and an inhibition of intracellular fat accumulation […].

[2] = system: athletes of sports which need endurance; assay: Endurance exercise test in athletes after beverage ingestion (stationary bicycle, crossover); format: in vivo, human
Protocol: The object of these experiments was 12 athletes (6 males, 6 females) of sports which need endurance (for example, cycling, rowing, or triathlon). The following (a)-(c) were evaluated for a beverage containing the amino acid composition of the present invention, water, and flavor (Example 1), a beverage containing glucose, water, and flavor (Comparative Example 1), and a beverage containing water and flavor (Comparative Example 2): (a) work done during full exercise, (b) total amount of fat oxidation during steady-state submaximal exercise, (c) changes of plasma glucagon concentration and free-fatty acid, and (d) change of blood lactate concentration.
The test used a 3-way double-blind crossover design. The 12 athletes were divided into 6 groups. Each of the groups, which contains 2 athletes, is used in each of the following six kinds of experimental sequential procedures with 3 kinds of beverages (i.e. Example 1 and Comparative Examples 1 and 2).
In FIG. 1, the time, when the fasting was finished, was designated as the base time (i.e. time 0). A prescribed diet and limited exercise had been done during the period from 24 hours before the base time to 12 hours before the base time; fasting was carried out in the period of from 12 hours before the base time to time 0; and the beverage (i.e. Example 1, Comparative Example 1, or Comparative Example 2) was orally ingested at 30 minutes after the finish of the fasting. After the lapse of 30 minutes after ingesting the beverage (designated as the “sample” in FIG. 1), exercise with a stationary training bicycle was performed for 85 minutes at a work load equivalent to 65% of the maximum oxygen intake (referred to below as steady-state submaximal exercise), and, after finishing steady-state submaximal exercise, as much work as possible was completed in 5 minutes on the stationary training bicycle.

[3] = system: Mouse fibroblasts (3T3-L1 cells); assay: Inhibition of differentiation of mouse fibroblasts into adipocytes, measured as GPDH activity; format: cell-based; conditions: 10 μM in D-MEM medium; control without addition 370 units
Protocol: Experiments were carried out for investigating whether the amino acid composition of the present invention is active in inhibiting the intracellular accumulation of fat granules (specifically, the ability to inhibit the induction of the differentiation of preadipocytes).
Mouse fibroblasts (3T3-LI cells) efficiently differentiate into adipocytes in the presence of dexamethasone (DEX), isobutylmethylxanthine (IBMX), and insulin. It is known that the addition of “Wortmannin”, which is a substance that inhibits the induction of differentiation to adipocytes, inhibits differentiation into adipocytes. This inhibitory effect can be evaluated by measuring the GPDH activity.
The GPDH activity is quantitated in terms of units where 1 unit equals 1 nmol of NADH which is oxidized for one minute in 1 mL of the culture medium for inducing the differentiation of mouse fibroblasts (3T3-LI cells) into adipocytes. A smaller value of units indicates a greater inhibitory effect on differentiation and a greater inhibition of intracellular fat granule accumulation.
The culture medium was obtained by dissolving the same amino acid composition of the present invention as that in Example 1 into D-MEM medium (i.e. serum-containing liquid medium) to provide a concentration of 1 mass %. Almost of the all amount of the amino acid composition was dissolved well by ultrasonication. […]

## CC(C)NCC(O)c1ccc(O)c(O)c1 (racemic) [Comparative Example 9, dl-isoproterenol]
[1]
  average value of absorbance (amount of free-fatty acid): 0.041

## O=C[C@H](O)[C@@H](O)[C@H](O)[C@H](O)CO [Comparative Example 1, glucose]
[2]; 380 g beverage (6 g active) orally 30 min before 85 min steady-state submaximal exercise, then 5 min full exercise
  amount of work during the 5 minutes of full exercise (average value of the 12 participants): 83.3 kJ
[2]; beverage orally 30 min before exercise at 65% of maximum oxygen intake
  total amount of fat oxidation during 85-minute steady-state submaximal exercise: 49.3 g
[2]; blood, after full exercise
  concentration of lactic acid after 5-minute full exercise: 8.8 mmol/L
[2]; blood, before full exercise
  concentration of lactic acid immediately before full exercise (after the sustained exercise period): 1.5 mmol/L

## COC[C@H]1OC(=O)c2coc3c2[C@@]1(C)C1=C(C3=O)[C@@H]2CCC(=O)[C@@]2(C)C[C@H]1OC(C)=O [Comparative Example 4, Wortmannin]
[3]
  GPDH activity: 47 units
